These results are taken from US9073895B2 (Boehringer Ingelheim International GmbH, priority 2010, dated 2015).

For assay [1], the system named is synthesis of LTB4 in human whole blood. The assay is described as follows: Human whole blood LTB4 production inhibition assay. In kind it is cell-based. To be noted: heparinized human whole blood, calcimycin 20 μM, plasma LTB4; read-out: HuWB IC50. In a few lines:
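Whole-blood cellular format, heparinized human donors: 15 min compound pretreatment, then 30 min calcimycin stimulation (20 μM final), both at 37° C. Low-speed centrifugation yields plasma, in which LTB4 is read by homogeneous time-resolved fluorescence immunoassay.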

Assay [2] deals with T1, recombinant human FLAP protein (Homo sapiens, UniProt P20292).
T1 construct: made in house; host or cells: Sf9 insect cells (membrane fraction, 100,000 x g pellet)
T1 sequence (P20292 1-161): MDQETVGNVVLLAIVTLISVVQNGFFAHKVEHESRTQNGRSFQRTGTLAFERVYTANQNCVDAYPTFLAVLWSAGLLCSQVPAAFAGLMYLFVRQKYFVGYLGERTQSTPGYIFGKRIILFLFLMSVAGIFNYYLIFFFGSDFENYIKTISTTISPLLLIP
The assay is described as follows: FLAP binding assay (SPA, displacement of [125I]L-691,831). Particulars: membranes of sf9 cells expressing human FLAP, [125I]L-691,831 probe; read-out: hFLAP binding IC50. In a few lines:
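Membranes from sf9 cells expressing human FLAP (5 μg/well) were bound to WGA SPA beads (200 μg/well). Nonspecific binding was defined with 10 μM unlabelled L-691,831.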
On the technique in general: Displacement assays read how much labelled ligand stays bound in the presence of the test substance.

By IC50 is commonly meant the point on the concentration scale where inhibition reaches its midpoint. Turning to `Nc1ncc(-c2ccc(C3(C(=O)Nc4ccc(N5CCOCC5)c(Cl)c4)CCOCC3)cc2)cn1` [Example 72, 4-[4-(2-aminopyrimidin-5-yl)phenyl]-N-[3-chloro-4-(mopholin-4-yl)phenyl]tetrahydro-2H-pyran-4-carboxamide], the results for the concentration for half-maximal inhibition (IC50) in assay [1] and in assay [2] were 244 nM and 28.3 nM, respectively.

On to `COC(=O)c1ccc(NC(=O)C2(c3ccc(-c4cnc(N)nc4)cc3)CCOCC2)nc1` [Example 146, methyl 6-[({4-[4-(2-aminopyrimidin-5-yl)phenyl]tetrahydro-2H-pyran-4-yl}carbonyl)amino]pyridine-3-carboxylate], for which the IC50 in assay [1] is 752 nM; in assay [2] it was 11.1 nM.

Consider `Nc1ncc(-c2ccc(C3(C(=O)Nc4nc(-c5ccccc5)cs4)CCOCC3)cc2)cn1` [Example 20, 4-[4-(2-aminopyrimidin-5-yl)phenyl]-N-(4-phenyl-1,3-thiazol-2-yl)tetrahydro-2H-pyran-4-carboxamide], for which the half-inhibitory concentration (IC50) was 1340 nM in assay [1] and 16 nM in assay [2].

In the case of `COc1cncc(-c2ccc(C(C)(C(=O)Nc3ccc(-c4csc(C)n4)cc3)C(C)C)cc2)c1` (stereo not shown) [Example 112, 2-[4-(5-methoxypyridin-3-yl)phenyl]-2,3-dimethyl-N-[4-(2-methyl-1,3-thiazol-4-yl)phenyl]butanamide], the half-inhibitory concentration (IC50) in assay [1] is 2060 nM; in assay [2], 230 nM.

As to `Nc1ncc(-c2ccc(C3(C(=O)Nc4nc(-c5ccncc5)cs4)CCOCC3)cc2)cn1` [Example 60, 4-[4-(2-aminopyrimidin-5-yl)phenyl]-N-[4-(pyridin-4-yl)-1,3-thiazol-2-yl]tetrahydro-2H-pyran-4-carboxamide], the values for the half-inhibitory concentration (IC50) in assay [1] and in assay [2] were 310 nM and 3.5 nM, respectively.

Turning to `Cn1ncnc1-c1ccc(NC(=O)C2(c3ccc(-c4cnc(N)nc4)cc3)CCC2)nc1` [Example 103, 1-[4-(2-aminopyrimidin-5-yl)phenyl]-N-[5-(1-methyl-1H-1,2,4-triazol-5-yl)pyridin-2-yl]cyclobutanecarboxamide], the figures for the IC50 in assay [1] and in assay [2] were 102 nM and 4.1 nM, respectively.

Take `COC(=O)c1sc(-c2ccc(Cl)cc2)cc1NC(=O)C1(c2ccc(-c3cnc(N)nc3)cc2)CCOCC1` [Example 73, methyl 3-[({4-[4-(2-aminopyrimidin-5-yl)phenyl]tetrahydro-2H-pyran-4-yl}carbonyl)amino]-5-(4-chlorophenyl)thiophene-2-carboxylate]: the IC50 was found to be 1500 nM in assay [1] and 53.5 nM in assay [2].

Regarding `Nc1ncc(-c2ccc(C3(C(=O)Nc4ccc(-c5cnco5)cc4)CCOCC3)cc2)cn1` [Example 27, 4-[4-(2-aminopyrimidin-5-yl)phenyl]-N-[4-(1,3-oxazol-5-yl)phenyl]tetrahydro-2H-pyran-4-carboxamide], the IC50 in assay [1] was 207 nM; in assay [2], 5.5 nM.

On to `Cc1nc(-c2ccc(NC(=O)C3(c4ccc(-c5cnc6c(c5)CCN6)cc4)CCOCC3)nc2)cs1` [Example 153, 4-[4-(2,3-dihydro-1H-pyrrolo[2,3-b]pyridin-5-yl)phenyl]-N-[5-(2-methyl-1,3-thiazol-4-yl)pyridin-2-yl]tetrahydro-2H-pyran-4-carboxamide], for which the IC50 stood at 509 nM in assay [1] and 7.8 nM in assay [2].

Turning to `Nc1ncc(-c2ccc(C3(C(=O)Nc4nc(-c5ccccn5)cs4)CCOCC3)cc2)cn1` [Example 59, 4-[4-(2-aminopyrimidin-5-yl)phenyl]-N-[4-(pyridin-2-yl)-1,3-thiazol-2-yl]tetrahydro-2H-pyran-4-carboxamide], the figures for the IC50 in assay [1] and in assay [2] were more than 3000 nM and 12.7 nM, respectively.

As to `Nc1ncc(-c2ccc(C3(C(=O)Nc4ccc5ccccc5n4)CCOCC3)cc2)cn1` [Example 142, 4-[4-(2-aminopyrimidin-5-yl)phenyl]-N-(quinolin-2-yl)tetrahydro-2H-pyran-4-carboxamide], the 50% inhibitory concentration (IC50) turned out to be 11300 nM in assay [1] and 39 nM in assay [2].

Turning to `Nc1ncc(-c2ccc(C3(C(=O)Nc4ccc(S(=O)(=O)N5CCOCC5)cc4)CCC3)cc2)cn1` [Example 88, 1-[4-(2-aminopyrimidin-5-yl)phenyl]-N-[4-(mopholin-4-ylsulfonyl)phenyl]cyclobutane-carboxamide], the IC50 in assay [1] was found to be 278 nM; in assay [2], 5.65 nM.

Take `CC(C)(C)c1cc(NC(=O)C2(c3ccc(-c4cnc(N)nc4)cc3)CCOCC2)ccn1` [Example 47, 4-[4-(2-aminopyrimidin-5-yl)phenyl]-N-(2-tert-butylpyridin-4-yl)tetrahydro-2H-pyran-4-carboxamide]: the IC50 in assay [1] came to 3200 nM; in assay [2], 65 nM.

As to `Nc1ncc(-c2ccc(C3(C(=O)Nc4cccc(Oc5ccccc5)c4)CCOCC3)cc2)cn1` [Example 22, 4-[4-(2-aminopyrimidin-5-yl)phenyl]-N-(3-phenoxyphenyl)tetrahydro-2H-pyran-4-carboxamide], the IC50 in assay [1] was more than 3000 nM; in assay [2], 60.5 nM.

Take `COc1ccc(NC(=O)C2(c3ccc(-c4cnc(N)nc4)cc3)CCOCC2)cc1Cl` [Example 14, 4-[4-(2-aminopyrimidin-5-yl)phenyl]-N-(3-chloro-4-methoxyphenyl)tetrahydro-2H-pyran-4-carboxamide]: the figures for the IC50 in assay [1] and in assay [2] were 2250 nM and 8.95 nM, respectively.

With `Nc1ncc(-c2ccc(C3(C(=O)Nc4ccc(Cl)c(Cl)c4)CCOCC3)cc2)cn1` [Example 13, 4-[4-(2-aminopyrimidin-5-yl)phenyl]-N-(3,4-dichlorophenyl)tetrahydro-2H-pyran-4-carboxamide], the IC50 in assay [1] is not below 3000 nM; in assay [2], 16.7 nM.

Consider `COc1ccc(-c2ccc(NC(=O)C3(c4ccc(-c5cnc(N)c(CO)c5)cc4)CCOCC3)nc2)cn1` [Example 170], for which the half-inhibitory concentration (IC50) in assay [1] worked out at 894 nM; in assay [2] it was 9.8 nM.

Take `Nc1ncc(-c2ccc(C3(C(=O)Nc4ccnnc4)CCC3)cc2)cn1` [Example 215, 1-[4-(2-aminopyrimidin-5-yl)phenyl]-N-(pyridazin-4-yl)cyclobutanecarboxamide]: the IC50 in assay [1] is 706 nM; in assay [2] it was 17.7 nM.

In the case of `CCC(C)(C(=O)Nc1ccc(-c2csc(C)n2)cn1)c1ccc(-c2cnc(N)nc2)cc1` (stereo not shown) [Example 228, 2-[4-(2-aminopyrimidin-5-yl)phenyl]-2-methyl-N-[5-(2-methyl-1,3-thiazol-4-yl)pyridin-2-yl]butanamide], the half-maximal inhibitory concentration (IC50) is 1100 nM in assay [1] and 12 nM in assay [2].

As to `Cc1nc2cc(NC(=O)C3(c4ccc(-c5cnc(N)nc5)cc4)CCOCC3)ccc2s1` [Example 75, 4-[4-(2-aminopyrimidin-5-yl)phenyl]-N-(2-methyl-1,3-benzothiazol-5-yl)tetrahydro-2H-pyran-4-carboxamide], the IC50 in assay [1] is more than 3000 nM; in assay [2], 68 nM.

Turning to `Nc1ncc(-c2ccc(C3(C(=O)Nc4cccc(-c5ccncc5)c4)CCOCC3)cc2)cn1` [Example 33, 4-[4-(2-aminopyrimidin-5-yl)phenyl]-N-[3-(pyridin-4-yl)phenyl]tetrahydro-2H-pyran-4-carboxamide], the half-maximal inhibitory concentration (IC50) in assay [1] was more than 3000 nM; in assay [2], 42.5 nM.

For `Nc1ncc(-c2ccc(C3(C(=O)Nc4ccc(-c5ccccc5)cn4)CCC3)cc2)cn1` [Example 201, 1-[4-(2-aminopyrimidin-5-yl)phenyl]-N-(5-phenylpyridin-2-yl)cyclobutanecarboxamide], the figures for the IC50 in assay [1] and in assay [2] were 224 nM and 3.75 nM, respectively.

For `Nc1ncc(-c2ccc(C3(C(=O)Nc4ccc(Oc5ccc(Cl)cc5)cc4)CCOCC3)cc2)cn1` [Example 63, 4-[4-(2-aminopyrimidin-5-yl)phenyl]-N-[4-(4-chlorophenoxy)phenyl]tetrahydro-2H-pyran-4-carboxamide], the IC50 in assay [1] turned out to be 812 nM; in assay [2], 30.5 nM.

As to `Nc1ncc(-c2ccc(C3(C(=O)Nc4ccc5c(c4)C(=O)OC5)CCOCC3)cc2)cn1` [Example 71, 4-[4-(2-aminopyrimidin-5-yl)phenyl]-N-(3-oxo-1,3-dihydro-2-benzofuran-5-yl)tetrahydro-2H-pyran-4-carboxamide], the results for the IC50 in assay [1] and in assay [2] were more than 3000 nM and 190 nM, respectively.

With `COC(=O)c1cccc(NC(=O)C2(c3ccc(-c4cnc(N)nc4)cc3)CCOCC2)c1` [Example 80, methyl 3-[({4-[4-(2-aminopyrimidin-5-yl)phenyl]tetrahydro-2H-pyran-4-yl}carbonyl)amino]benzoate], the figures for the IC50 in assay [1] and in assay [2] were more than 3000 nM and 60 nM, respectively.

`CCC(C)(C(=O)Nc1ccncc1)c1ccc(-c2cnc(N)nc2)cc1` (stereo not shown) [Example 231, 2-[4-(2-aminopyrimidin-5-yl)phenyl]-2-methyl-N-(pyridin-4-yl)butanamide]: the IC50 worked out at 1210 nM in assay [1] and 84 nM in assay [2].

Turning to `COc1cncc(-c2ccc(C(C)(C(=O)Nc3ccc(OCc4ccccn4)cc3)C(C)C)cc2)c1` (stereo not shown) [Example 111], the figures for the IC50 in assay [1] and in assay [2] were 2380 nM and 180 nM, respectively.

Consider `Nc1ncc(-c2ccc(C3(C(=O)Nc4ccc(-c5ccccc5)cc4)CCOCC3)cc2)cn1` [Example 16, 4-[4-(2-aminopyrimidin-5-yl)phenyl]-N-(biphenyl-4-yl)tetrahydro-2H-pyran-4-carboxamide], for which the half-inhibitory concentration (IC50) in assay [1] was found to be 636 nM; in assay [2] it was 10.7 nM.

`Cc1nc(-c2ccc(NC(=O)C3(c4ccc(-c5ccc(N)nc5)cc4)CCOCC3)nc2)cs1` [Example 191, 4-[4-(6-aminopyridin-3-yl)phenyl]-N-[5-(2-methyl-1,3-thiazol-4-yl)pyridin-2-yl]tetrahydro-2H-pyran-4-carboxamide]: the figures for the concentration for half-maximal inhibition (IC50) in assay [1] and in assay [2] were 1950 nM and 27.5 nM, respectively.
